Data set [1] in a line: Blockade of protein farnesyltransferase by aggregate-based inhibition assay.
Data set [2] in a line: Blockade of protein farnesyltransferase at 100 uM by aggregate-based inhibition assay.
The nature of data set [3]: Inhibition of protein farnesyltransferase by continuous fluorescence assay.
Data set [4] concerns MDCK. The experiment in a line: Inhibition of protein farnesyltransferase-mediated farnesylation of GFP-tagged H-Ras protein overexpressed in MDCK cells assessed as inhibition of protein localization into golgi and plasma membrane at 25 uM after 24 hrs by Hoechst 34580 staining-based confocal microscopy. It counts as cell-based.
The test system of data set [5] is MDCK. Kind of data set: Inhibition of protein farnesyltransferase-mediated farnesylation of GFP-tagged H-Ras protein overexpressed in MDCK cells assessed as inhibition of protein localization into golgi and plasma membrane at 10 uM after 48 hrs by Hoechst 34580 staining-based confocal microscopy. The class given is cell-based.
Data set [6] has as its system MDCK. Kind of data set: Cytotoxicity against MDCK cells at >10 uM. The class given is cell-based, Canis lupus familiaris. Particulars: dog.

Activity calls are given as the source filed them. No cut-off for these calls is given here.

For the molecule `Clc1ccc(COC(Cn2ccnc2)c2ccc(Cl)cc2Cl)cc1` (stereo not given), the outcome in data set [1] was Active.
Regarding `Clc1ccccc1C(c1ccccc1)(c1ccccc1)n1ccnc1`, in data set [2], the result was inactive.
With `O=C1OC(c2ccc(O)cc2)(c2ccc(O)cc2)c2c(I)c(I)c(I)c(I)c21`, in data set [1], the result was inactive.
The term IC50 denotes the concentration that inhibits the measured activity by half. A low value points to greater potency in that assay. With `CCOC(=O)N1CCC(=C2c3ccc(Cl)cc3CCc3cccnc32)CC1` [LORATADINE], in data set [3], the IC50 was 13.3 µM. Further, the outcome in the data set on MDCK [4] was inactive.
Take `Clc1ccc(COC(Cn2ccnc2)c2ccc(Cl)cc2Cl)c(Cl)c1` (stereo not given) [MICONAZOLE]: the outcome (in data set [1]; in the data set on MDCK [5]) was Active. Besides, the Activity entry with MDCK [6] is given as “Toxic”.
Take `Cc1cncc(CN2CCC(=C3c4ccc(Cl)cc4CCc4cccnc43)CC2)c1` [RUPATADINE]: it took 76 µM to reach half-maximal inhibition in data set [3] (IC50).
Same read-out and setting: in the case of `CC(C)C[C@H](NC(=O)[C@@H](O)[C@H](N)Cc1ccccc1)C(=O)O` [UBENIMEX] it was above 200 µM.
